Reference: US12371454B2, “Cyclic peptide compound having Kras inhibitory action” (priority 2019, dated 2025)
Starred links: 1 amine or outer side, 2 acyl side, 3 side chain; linkers in the order of their positions; H or OH if unused. Positions of bridges follow the written chain, without caps; N, C: chain ends. Non-standard residues stand in square brackets, D forms with d. Residues, ends and D or L forms follow the SMILES beside them. *: point of attachment. hPhe(3,5-F2-4-CF3) = N[C@@H](CCc1cc(F)c(C(F)(F)F)c(F)c1)C(=O)O; hPhe(3-Cl-4-CF3) = N[C@@H](CCc1ccc(C(F)(F)F)c(Cl)c1)C(=O)O; hPhe(3-F,4-CF3) = N[C@@H](CCc1ccc(C(F)(F)F)c(F)c1)C(=O)O; NMePhe(4-CF3) = CN[C@@H](Cc1ccc(C(F)(F)F)cc1)C(=O)O; NMeAbu(4,4,4-F3) = CN[C@@H](CC(F)(F)F)C(=O)O; NMePhe(4-Cl) = CN[C@@H](Cc1ccc(Cl)cc1)C(=O)O; NMePhe(4-Me) = CN[C@@H](Cc1ccc(C)cc1)C(=O)O; NMePhe(4-F) = CN[C@@H](Cc1ccc(F)cc1)C(=O)O; X31 = O=C([C@H](Cc1ccc(Cl)s1)N[*:1])[*:2]; NMeGly(cPent) = CN[C@H](C(=O)O)C1CCCC1; Phe(3-I) = N[C@@H](Cc1cccc(I)c1)C(=O)O; Pro(4,4-F2) = O=C(O)[C@@H]1CC(F)(F)CN1; NMeCha = CN[C@@H](CC1CCCCC1)C(=O)O; Hyp = O=C(O)[C@@H]1C[C@@H](O)CN1; NEtLeu = CCN[C@@H](CC(C)C)C(=O)O; NMeChg = CN[C@H](C(=O)O)C1CCCCC1; NMeF = CN[C@@H](Cc1ccccc1)C(=O)O; NMeI = CC[C@H](C)[C@H](NC)C(=O)O; NMeD = CN[C@@H](CC(=O)O)C(=O)O; NMeL = CN[C@@H](CC(C)C)C(=O)O; NMeNva = CCC[C@H](NC)C(=O)O; NMeV = CN[C@H](C(=O)O)C(C)C; d(β3hA) = C[C@@H](N)CC(=O)O; Morpholide = C1CN(*)CCO1; NMeA = CN[C@@H](C)C(=O)O; NMeAib = CNC(C)(C)C(=O)O; Nle = CCCC[C@H](N)C(=O)O; Piperidide = C1CCN(*)CC1; Pra = C#CC[C@H](N)C(=O)O; Pyrrolidide = C1CCN(*)C1; Ac5c = NC1(C(=O)O)CCCC1; Aze = O=C(O)[C@@H]1CCN1; Sar = CNCC(=O)O

Molecular target: T1, Kras and SOS1 (biotin-tagged human Kras loaded with GDP, His-tagged human SOS1) (Homo sapiens, UniProt P01116, G12D)
T1 construct: made in house; host or cells: E. coli (stated for Kras only)
T1 sequence (P01116 1-188 isoform P01116-2 G12D): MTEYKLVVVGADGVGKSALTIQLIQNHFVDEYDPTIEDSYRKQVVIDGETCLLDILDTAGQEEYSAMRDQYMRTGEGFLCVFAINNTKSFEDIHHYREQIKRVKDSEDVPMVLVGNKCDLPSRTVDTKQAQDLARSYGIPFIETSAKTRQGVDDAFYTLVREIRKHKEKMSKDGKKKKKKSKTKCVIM
Assay: Protein-protein interaction inhibition between Kras and SOS1 (KrasGl2D-SOS PPI) using AlphaScreen
Assay type: binding
Conditions: AlphaScreen; biotin-tagged human Kras loaded with GDP, His-tagged human SOS1; read-out: KRAS G12D-SOS PPI IC50
Outline: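 Kras was produced in E. coli, purified, then loaded with GDP. It was paired via streptavidin acceptor beads with His-SOS1 held on nickel donor beads, and proximity signal at 520-620 nm was read after 680 nm illumination.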

Row | Structure (SMILES) | IC50 [nM]
1 | CCC[C@H]1C(=O)N[C@@H]([C@@H](C)CC)C(=O)N(C)CC(=O)N(C)CC(=O)N(C)[C@@H](Cc2ccc(C)cc2)C(=O)N(C)CC(=O)N[C@@H](CCc2cc(F)c(C(F)(F)F)c(F)c2)C(=O)N2CC(F)(F)C[C@H]2C(=O)NC2(CCCC2)C(=O)N(C)[C@@H](C2CCCCC2)C(=O)N(C)[C@H](C(=O)N2CCCC2)CC(=O)N1C [Compound 1306] ([NMeNva]I[Sar][Sar][NMePhe(4-Me)][Sar][hPhe(3,5-F2-4-CF3)][Pro(4,4-F2)][Ac5c][NMeChg][NMeD]-Pyrrolidide; lactam N-11) | 0.5
2 | CC[C@H](C)[C@@H]1NC(=O)[C@H](CC(C)C)N(C)C(=O)C[C@@H](C)NC(=O)[C@H](C2CCCC2)N(C)C(=O)C2(CCCC2)NC(=O)[C@H](C)NC(=O)[C@H](CCc2ccc(C(F)(F)F)c(Cl)c2)NC(=O)CN(C)C(=O)[C@H](Cc2ccc(C)cc2)N(C)C(=O)[C@@H]2CCN2C(=O)[C@H](C)N(C)C1=O [Compound 1307] (cyclo(A[Ac5c][NMeGly(cPent)][d(β3hA)][NMeL]I[NMeA][Aze][NMePhe(4-Me)][Sar][hPhe(3-Cl-4-CF3)])) | 2.7
3 | C#CC[C@@H]1NC(=O)[C@H](Cc2cccc(I)c2)NC(=O)CN(C)C(=O)[C@H](Cc2ccccc2)N(C)C(=O)[C@@H]2CCN2C(=O)[C@H](C)N(C)C(=O)[C@H]([C@@H](C)CC)NC(=O)[C@H](CC(C)C)N(C)C(=O)C[C@@H](C(=O)N2CCCCC2)N(C)C(=O)[C@H](CC(C)C)NC(=O)C(C)(C)N(C)C1=O [Compound 1313] ([NMeL]I[NMeA][Aze][NMeF][Sar][Phe(3-I)][Pra][NMeAib]L[NMeD]-Piperidide; lactam N-11) | 65
4 | CC[C@H](C)[C@@H]1NC(=O)[C@H](CC(C)C)N(C)C(=O)C[C@@H](C(=O)N2CCCCC2)N(C)C(=O)[C@H](C(C)C)N(C)C(=O)C2(CCCC2)NC(=O)[C@@H](C)NC(=O)[C@H](CCc2ccc(C(F)(F)F)c(Cl)c2)NC(=O)CN(C)C(=O)[C@H](CC2CCCCC2)N(C)C(=O)[C@@H]2CCN2C(=O)[C@H](C)N(C)C1=O [Compound 1314] ([NMeL]I[NMeA][Aze][NMeCha][Sar][hPhe(3-Cl-4-CF3)][dA][Ac5c][NMeV][NMeD]-Piperidide; lactam N-11) | 90
5 | CC[C@H](C)[C@@H]1NC(=O)[C@H](CC(C)C)N(C)C(=O)C[C@@H](C(=O)N2CCCCC2)N(C)C(=O)[C@H](C(C)C)N(C)C(=O)C2(CCCC2)NC(=O)[C@H](C)NC(=O)[C@H](CCc2ccc(C(F)(F)F)c(Cl)c2)NC(=O)CN(C)C(=O)[C@H](CC2CCCCC2)N(C)C(=O)[C@@H]2CCN2C(=O)[C@H](C)N(C)C1=O [Compound 1316] ([NMeL]I[NMeA][Aze][NMeCha][Sar][hPhe(3-Cl-4-CF3)]A[Ac5c][NMeV][NMeD]-Piperidide; lactam N-11) | 3.2
6 | CC[C@H](C)[C@@H]1NC(=O)[C@H](CC(F)(F)F)N(C)C(=O)C[C@@H](C(=O)N2CCCC2)N(C)C(=O)[C@H](C2CCCCC2)N(C)C(=O)C2(CCCC2)NC(=O)[C@@H]2CC(F)(F)CN2C(=O)[C@H](CCc2cc(F)c(C(F)(F)F)c(F)c2)NC(=O)CN(C)C(=O)[C@H](Cc2ccc(C)cc2)N(C)C(=O)CN(C)C(=O)CN(C)C1=O [Compound 1317] ([NMeAbu(4,4,4-F3)]I[Sar][Sar][NMePhe(4-Me)][Sar][hPhe(3,5-F2-4-CF3)][Pro(4,4-F2)][Ac5c][NMeChg][NMeD]-Pyrrolidide; lactam N-11) | 0.57
7 | CCCC[C@@H]1NC(=O)[C@H](Cc2ccc(Cl)s2)NC(=O)CN(C)C(=O)[C@H](Cc2ccc(Cl)cc2)N(C)C(=O)CN(C)C(=O)CN(C)C(=O)[C@H]([C@@H](C)CC)NC(=O)[C@H](CC(C)C)N(C)C(=O)C[C@@H](C(=O)N2CCCCC2)N(C)C(=O)[C@H](CC(C)C)NC(=O)C(C)(C)N(C)C1=O [Compound 1318] ([NMeL]I[Sar][Sar][NMePhe(4-Cl)][Sar][X31][Nle][NMeAib]L[NMeD]-Piperidide; lactam N-11) | 78
8 | CC[C@H](C)[C@@H]1NC(=O)[C@H](CC(C)C)N(CC)C(=O)C[C@@H](C(=O)N(C)C)N(C)C(=O)[C@H](C2CCCC2)N(C)C(=O)C2(CCCC2)NC(=O)[C@@H]2CCCN2C(=O)[C@H](CCc2ccc(C(F)(F)F)c(F)c2)NC(=O)CN(C)C(=O)[C@H](CC2CCCCC2)N(C)C(=O)[C@@H]2CCN2C(=O)[C@H](C)N(C)C1=O [Compound 1324] ([NEtLeu]I[NMeA][Aze][NMeCha][Sar][hPhe(3-F,4-CF3)]P[Ac5c][NMeGly(cPent)][NMeD]-NMe2; lactam N-11) | 1.2
9 | C#CC[C@@H]1NC(=O)[C@H](Cc2cccc(I)c2)NC(=O)CN(C)C(=O)[C@H](Cc2ccc(F)cc2)N(C)C(=O)CN(C)C(=O)CN(C)C(=O)[C@H]([C@@H](C)CC)NC(=O)[C@H](CC(C)C)N(C)C(=O)C[C@@H](C(=O)N2CCCCC2)N(C)C(=O)[C@H](CC(C)C)NC(=O)C(C)(C)N(C)C1=O [Compound 1327] ([NMeL]I[Sar][Sar][NMePhe(4-F)][Sar][Phe(3-I)][Pra][NMeAib]L[NMeD]-Piperidide; lactam N-11) | 72
10 | CC[C@H](C)[C@@H]1NC(=O)[C@H](CC(C)C)N(C)C(=O)C[C@@H](C)NC(=O)[C@H](C2CCCC2)N(C)C(=O)C2(CCCC2)NC(=O)[C@@H](C)NC(=O)[C@H](CCc2ccc(C(F)(F)F)c(Cl)c2)NC(=O)CN(C)C(=O)[C@H](Cc2ccc(C)cc2)N(C)C(=O)[C@@H]2CCN2C(=O)[C@H](C)N(C)C1=O [Compound 1328] (cyclo([Ac5c][NMeGly(cPent)][d(β3hA)][NMeL]I[NMeA][Aze][NMePhe(4-Me)][Sar][hPhe(3-Cl-4-CF3)][dA])) | 220
11 | CCO[C@@H]1C[C@H]2C(=O)NC3(CCCC3)C(=O)N(C)[C@@H]([C@@H](C)CC)C(=O)N(C)[C@H](C(=O)N3CCOCC3)CC(=O)N(C)[C@@H](CC(C)C)C(=O)N[C@@H]([C@@H](C)CC)C(=O)N(C)[C@@H](C)C(=O)N3CC[C@H]3C(=O)N(C)[C@@H](Cc3ccc(C(F)(F)F)cc3)C(=O)N(C)CC(=O)N[C@@H](CCc3ccc(C(F)(F)F)c(Cl)c3)C(=O)N2C1 [Compound 1330] ([NMeL]I[NMeA][Aze][NMePhe(4-CF3)][Sar][hPhe(3-Cl-4-CF3)][Hyp](Et)[Ac5c][NMeI][NMeD]-Morpholide; lactam N-11) | 0.62
12 | CC[C@H](C)[C@@H]1NC(=O)[C@H](CC(C)C)N(C)C(=O)C[C@@H](C(=O)N2CCOCC2)N(C)C(=O)[C@H](C2CCCCC2)N(C)C(=O)C2(CCCC2)NC(=O)[C@@H]2CCCN2C(=O)[C@H](CCc2ccc(C(F)(F)F)c(Cl)c2)NC(=O)CN(C)C(=O)[C@H](CC2CCCCC2)N(C)C(=O)CN(C)C(=O)CN(C)C1=O [Compound 1333] ([NMeL]I[Sar][Sar][NMeCha][Sar][hPhe(3-Cl-4-CF3)]P[Ac5c][NMeChg][NMeD]-Morpholide; lactam N-11) | 0.48
13 | CC[C@H](C)[C@@H]1NC(=O)[C@H](CC(C)C)N(C)C(=O)C[C@@H](C(=O)N2CCOCC2)N(C)C(=O)[C@H](C2CCCCC2)N(C)C(=O)C2(CCCC2)NC(=O)[C@@H]2CC(F)(F)CN2C(=O)[C@H](CCc2cc(F)c(C(F)(F)F)c(F)c2)NC(=O)CN(C)C(=O)[C@H](CC2CCCCC2)N(C)C(=O)CN(C)C(=O)CN(C)C1=O [Compound 1337] ([NMeL]I[Sar][Sar][NMeCha][Sar][hPhe(3,5-F2-4-CF3)][Pro(4,4-F2)][Ac5c][NMeChg][NMeD]-Morpholide; lactam N-11) | 0.55
14 | CC[C@H](C)[C@@H]1NC(=O)[C@H](CC(C)C)N(C)C(=O)C[C@@H](C(=O)N2CCCC2)N(C)C(=O)[C@H](C2CCCC2)N(C)C(=O)C2(CCCC2)NC(=O)[C@@H]2CCCN2C(=O)[C@H](CCc2cc(F)c(C(F)(F)F)c(F)c2)NC(=O)CN(C)C(=O)[C@H](CC2CCCCC2)N(C)C(=O)CN(C)C(=O)CN(C)C1=O [Compound 1342] ([NMeL]I[Sar][Sar][NMeCha][Sar][hPhe(3,5-F2-4-CF3)]P[Ac5c][NMeGly(cPent)][NMeD]-Pyrrolidide; lactam N-11) | 0.53
15 | CC[C@H](C)[C@@H]1NC(=O)[C@H](CC(C)C)N(C)C(=O)C[C@@H](C(=O)N2CCCC2)N(C)C(=O)[C@H]([C@@H](C)CC)N(C)C(=O)C2(CCCC2)NC(=O)[C@@H]2CCCN2C(=O)[C@H](CCc2cc(F)c(C(F)(F)F)c(F)c2)NC(=O)CN(C)C(=O)[C@H](Cc2ccc(C(F)(F)F)cc2)N(C)C(=O)[C@@H]2CCN2C(=O)[C@H](C)N(C)C1=O [Compound 1343] ([NMeL]I[NMeA][Aze][NMePhe(4-CF3)][Sar][hPhe(3,5-F2-4-CF3)]P[Ac5c][NMeI][NMeD]-Pyrrolidide; lactam N-11) | 0.61
16 | C#CC[C@@H]1NC(=O)[C@H](Cc2cccc(I)c2)NC(=O)CN(C)C(=O)[C@H](Cc2ccc(F)cc2)N(C)C(=O)[C@@H]2CCN2C(=O)CN(C)C(=O)[C@H]([C@@H](C)CC)NC(=O)[C@H](CC(C)C)N(C)C(=O)C[C@@H](C(=O)N2CCCCC2)N(C)C(=O)[C@H](CC(C)C)NC(=O)C(C)(C)N(C)C1=O [Compound 1344] ([NMeL]I[Sar][Aze][NMePhe(4-F)][Sar][Phe(3-I)][Pra][NMeAib]L[NMeD]-Piperidide; lactam N-11) | 190
17 | CC[C@H](C)[C@@H]1NC(=O)[C@H](CC(C)C)N(C)C(=O)C[C@@H](C(=O)N2CCCCC2)N(C)C(=O)[C@H](C2CCCCC2)N(C)C(=O)C2(CCCC2)NC(=O)[C@@H]2CCCN2C(=O)[C@H](CCc2ccc(C(F)(F)F)c(Cl)c2)NC(=O)CN(C)C(=O)[C@H](CC2CCCCC2)N(C)C(=O)CN(C)C(=O)[C@H](C)N(C)C1=O [Compound 1345] ([NMeL]I[NMeA][Sar][NMeCha][Sar][hPhe(3-Cl-4-CF3)]P[Ac5c][NMeChg][NMeD]-Piperidide; lactam N-11) | 40
